In a melting point compilation (Tetko et al.; mined from patent text by program, amines drawn as free bases though some values may be those of a salt):

SMILES | melting point [°C]
Cn1c(NC2CCNC(Cc3ccccc3)C2)nc2ccccc21 (stereo not drawn) | 86.3
C=CCNCC(O)COc1cccc2c1CC(=O)N2 (stereo not drawn) | 124 to 127
Fc1ccc2c(CN3CCc4ccccc4C3)c[nH]c2c1 | 144 to 145
CCC12CCC(=O)C=C1c1c(cc(OC(C)C(=O)OC3COC(C)(C)O3)c(Cl)c1Cl)C2 (stereo not drawn) | 143 to 145
COC(=O)COc1cccc2c1c(C(=O)C(N)=O)c(C)n2Cc1cccc2ccccc12 | 188 to 190
COC(=O)/C=C/c1ccc(N(C)C(C)=O)nc1 | 94.3
Cc1ccc(C(O)(Cn2ccnc2)C(C)(C)C)cc1 (stereo not drawn) | 135 to 137
O=C(OCC(Cn1cnc2c(Cl)nc3ccccc3c21)OC(=O)c1ccccc1)c1ccccc1 (stereo not drawn) | 162 to 165
CC(C)(Cl)C(CCN1C(=O)c2ccccc2C1=O)N=O (stereo not drawn) | 140 to 141
Cc1c(C)c(Br)c2ncccc2c1C | 180
O=C(O)CON=CCCl | 66 to 68
O=C(O)c1ccc(COCc2csc3nc(C(=O)NCc4cccc(OC(F)(F)F)c4)[nH]c(=O)c23)cc1 | 248 to 250
CCOC(Cc1ccc(OCCN2C(=O)COc3ccccc32)cc1)C(=O)O (stereo not drawn) | 90 to 93
O=C(O)c1cc(=O)cc(C=Cc2ccccc2)o1 | 227 to 228
COc1ccc(N2CCC(C(N)=O)CC2)cc1 | 178 to 181
CNC(=O)NS(=O)(=O)c1cc(CCNC(=O)c2cc(Cl)ccc2OC)ccc1-c1ccco1 | 118 to 120
OCCON=Cc1ccc(-c2ccccc2)cc1 | 116 to 118
CCOC1(c2ccccc2)CCN(C)CC1O (stereo not drawn) | 145 to 146
CONC(=N)NC(=O)Nc1c(C)cccc1C | 78 to 80
CCCCn1ccc2cc(-c3ccc(C(F)(F)F)cc3)ccc21 | 52 to 53
c1csc(-c2ccc(-c3cccs3)c3nsnc23)c1 | 121 to 122
CCOCc1nc2c(N)nc3cc(-c4ccccc4)ccc3c2n1CCCN1CCCC1=O | 199 to 203
CN(C)CCC(O)c1ccccc1 (stereo not drawn) | 45 to 46
CP(=O)(NCC(=O)OCc1ccccc1)C1CC(c2ccccc2)=NO1 (stereo not drawn) | 132 to 135

SMILES | melting point [°C]
CCCCOc1cc2c(cc1OC)C(c1ccc(OC)c(OC)c1)=NN=C(C)C2CC (stereo not drawn) | 147 to 150
O=C(c1ccccc1Nc1ccc(O)cc1)N1CCOCC1 | 214 to 216
NC(=O)CCCCCCBr | 84
COC1OC2OC3(C)CCC4C(C)CCC(C1C)C24OO3 (stereo not drawn) | 73 to 74.5
C#CCC(C)(C(=O)O)C(=O)O | 135
CC(C)NCC#CC1(O)c2ccccc2-c2ccccc21 | 135 to 137
O=S1N=C(NCCCN(Cc2ccccc2)c2ccccn2)C(NCc2ccncc2)=N1 (stereo not drawn) | 140 to 142
COc1ccc(C2CCOCC2)c2sc(-c3ncc[nH]3)nc12 | 220 to 224
CC(C)(C)OC(=O)NN1CCNC1=O | 186 to 188
COCc1c(-c2ccno2)ncc2[nH]c3ccc(OCc4ccccc4)cc3c12 | 125 to 126
CCOC(=O)/C=C(\C)Cl | 58 to 60
O=C(N[C@H]1CN(C(=O)N2CCC[C@H]2C(=O)O)C1=O)c1ccccc1 | 148 to 151
CN1C(=O)C2(COc3cc4c(cc32)OCCO4)c2c(C(N)=O)cccc21 (stereo not drawn) | > 250
Cc1noc(C)c1-c1cn(Cc2ccccc2)c(=O)c2ccccc12 | 139 to 141
N#CCn1nnc(N)n1 | 105 to 106
O=C1NC(C(Cl)(Cl)Cl)Nc2ccc([N+](=O)[O-])cc21 (stereo not drawn) | 278 to 280
Cc1cc2c(N3CCCC3C)ccc(C#N)c2o1 (stereo not drawn) | 78 to 80
N#CC(C=O)=C(c1ccc(F)cc1)c1ccc(F)cc1 | 167 to 169
c1ccc(N2CCN(Cc3nc4ccccc4[nH]3)CC2)nc1 | 220 to 221
Cc1ccc(NC(=O)NCc2ccc3c(c2)CN(C2CCC(=O)NC2=O)C3=O)cc1C(F)(F)F (stereo not drawn) | 273 to 275
CN1C(=O)CC2(CC(=O)N(Cc3ccccc3)C2)C1=O (stereo not drawn) | 157 to 158
CCOC(=O)CN(CCN(CCN1CC(=O)OC(=O)C1)CC(=O)O)CC(=O)O | 195 to 196
O=C(CCc1ccccc1)N[C@H](Cc1ccc(C(F)(F)F)cc1)[C@@H](O)c1ccc(F)cc1 (racemic) | 144 to 145
COc1ccc(C(=O)NC2CCCNC(=O)C2)cc1OC (stereo not drawn) | 190 to 191

SMILES | melting point [°C]
ClCCc1nc2c(ccc3ccccc32)o1 | 80 to 82
COC(=O)CC(c1ccc(OC)c(OC)c1)N1C(=O)C2CCCCC2C1=O (stereo not drawn) | 92.5 to 95
COc1cc(OC)c2c(=O)c3oc4cc(OC)ccc4c3oc2c1 | 272 to 274
CC(C)Oc1cc(COc2cc(CCC(=O)O)n(C)n2)cc(COc2ccc(Cl)cc2Cl)c1 | 105 to 106
O=C(O)C=C1SC(=NC2CCCCC2)N(C2CCCCC2)C1=O | 189 to 190
CCOC(=O)C(CCCc1ccccc1CP(=O)(OCC)OCC)(NC(C)=O)C(=O)OCC | 76 to 79
CCN(CC)Cc1nnc(-c2ncn3c2CN(C)C(=O)c2ccccc2-3)o1 | 235 to 238
Cn1cccc1C1=C(c2cn(C)c3ccccc23)C(=O)NC1=O | 248 to 250
CC1(C)CCC(C)(C)c2cc3[nH]c(SCc4ccccn4)nc3cc21 | 199 to 200
CCCCCCCCCCCCC(=O)c1cn(CCCC(=O)O)c2ccccc12 | 76 to 78
CC1(C)COC(C)(C)N1C(=O)OCCN(Cc1ccccc1)Cc1ccccc1 | 32
COC(=O)CC/C(C)=C/Cc1c(NC(=O)N(C)C)c2c(c(C)c1OC)COC2=O | 116 to 118
O=C1CCCC(=O)C1Br | 153 to 154
NC(=O)Cc1ccc2c(c1)C(=O)Cc1ccccc1S2 | 171 to 172
O=C(Nc1ccccc1N1CCc2ccccc21)c1ccco1 | 99 to 102
CC(=O)OC1CSC(Oc2cnc(-c3ccccc3)c(F)c2)C(OC(C)=O)C1OC(C)=O (stereo not drawn) | 160 to 162
O=C(Nc1cccc2c1C(=O)c1c-2n[nH]c1-c1ccc(C(=O)NC2CN3CCC2CC3)s1)NN1CCOCC1 (stereo not drawn) | 245 to 246
O=Cc1ccc(-c2cccc(-c3cn([C@H]4CN5CCC4CC5)nn3)c2)s1 | 150
CNc1cc(Br)cc(Sc2ccc([N+](=O)[O-])cc2)c1 | 96 to 98
Cc1[nH]cnc1CSCCN=C(NCCCc1c[nH]cn1)NC(=O)c1ccccc1 | 98.5 to 100
O=C(NC(Cc1ccc(OCc2ccccc2)cc1)C(=O)O)c1cn2cc(-c3cccnc3)ccc2n1 (stereo not drawn) | 244
COc1c(OCCOc2ccc(C(C)(C)C)cc2)ccnc1C | 84 to 87
OCc1ccc(OCc2csc(-c3ccccc3)n2)nc1 | 134 to 135

Now from value to molecule:

melting point [°C] | SMILES
> 190 | CC(C)S(=O)(=O)c1cc(OCCc2ccccn2)c2[nH]nc(Nc3ncc(CN4CCOCC4)s3)c2c1
201 to 203 | COc1cc(OC)nc(NC(=O)N=NS(=O)(=O)C2N(C)C=CN2C)n1
190 to 193 | CC1(C)CC(=O)Nc2cc3nc(-c4cccc(Cl)c4)[nH]c3cc21
103 to 106 | COc1cccc(COc2ncc(F)c(NN)n2)c1
254 to 256 | Cc1cc(S)n2nc(S(=O)(=O)O)nc2n1
151 to 156 | CC(C)C(=O)C(=Cc1cc(O)c(O)c([N+](=O)[O-])c1)c1ccccc1
230 | N#Cc1ccc(N(Cc2ccc3c(c2)NS(=O)(=O)O3)n2ccnc2)cc1
102 to 105 | Cc1ccc(C(=O)c2ccc(CC#N)n2C)cc1
154 to 155 | CC(=O)N1CCN=C1Nc1cc(-c2ccccc2)nn1C
98 to 98.5 | C=CCSc1c(O)cc(C)oc1=O
244 to 246 | CC(C)(C)c1cc(-n2nc3c(Br)ccc(Br)c3n2)c(O)c(C(C)(C)C)c1
169 to 170 | CCOC(=O)c1cc([N+](=O)[O-])c2ccccn2c1=O
84 to 85 | CCOC(=O)c1ncn(-c2nccs2)c1S(N)(=O)=O
168 to 170 | COCCc1nc2c(N)nc3c(c2n1CCCNC(=O)c1ccccc1)CCCC3
246 to 248 | COc1cc(C(=O)c2ccnc3ccccc23)cc([N+](=O)[O-])c1O
233 to 236 | Nc1nn(Cc2ccccc2)c2nc3n(c(=O)c12)CCS3
212 | O=C(O)c1c(Br)c(Br)cc2c1OCCO2
207 to 208 | COc1ccc(-c2ccc3c(c2)NC(=O)CC(c2cccc(-n4ccnc4)c2)=N3)cc1
74 | CC(=O)c1cc(N)c(Cl)cc1Cl

melting point [°C] | SMILES
71 | COC(=O)CCCc1cc2nc(Cl)ccc2n1S(=O)(=O)c1cccc2nccnc12
135 to 137 | Cc1nc2ccc(OC(F)(F)F)cc2[nH]1
127 to 128 | CCOC(=O)CNc1ncccc1NC(=O)c1ccc(F)cc1
64 to 67 | CC(=Cc1cccc2ccccc12)[N+](=O)[O-]
81 | CC(=O)NCCCNC(=O)c1cc2c(ccc3cnn(C[C@H](C)N)c32)o1
94 | COc1cc(C)c(NCCO)cc1[N+](=O)[O-]
190 to 192 | Cc1sc2ccc(Cl)cc2c1C1=NCCN1
128 to 129 | COC(=O)NC(Cc1c[nH]c2ccccc12)C(=O)OCc1cc(C)cc(C)c1 (stereo not drawn)
52 to 53.5 | CCN(CC)c1ccc(C(=O)OC)nc1
92 to 94 | CN1CC(CCCl)Oc2ccc(Br)cc2C1=O (stereo not drawn)
205 to 206 | CC(C)n1nc(-c2cc(C(=O)NCc3ccccc3)cnc2-c2ccccc2)ccc1=O
234 to 236 | CN(C)CCOc1ccc(Cl)c(C(=O)O)c1Cl
176 to 180 | Cc1cn(-c2cc(C)c(N)c(Br)c2)c(C)n1
120 to 121 | CC(=O)c1cc2cc(Br)ccc2s1
115 to 116 | OC(Cn1cncn1)(c1ccc(F)cc1)c1ccccc1Cl (stereo not drawn)
175 to 176 | CNc1cc(Oc2ccc3c(c2)CCCN3C(=O)Nc2ccc(C(C)(C)C)cc2)ncn1
143 to 144 | Cn1cc(S(=O)(=O)NC(C)(C)C)c(=O)n(C)c1=O
171 to 173 | NC(=NCC(F)(F)F)Nc1cnn(-c2cccc(C(=O)NCCO)c2)n1
